The results in this text go back to ChEMBL document CHEMBL4043144, “Design, synthesis and evaluation of 2,2-dimethyl-1,3-dioxolane derivatives as human rhinovirus 3C protease inhibitors” (Bioorg Med Chem Lett, 2017).

pIC50: −log10 of the molar value.

Experiment [1] can be described thus: Inhibition of recombinant N-terminal His-tagged HRV 3C protease expressed in Escherichia coli preincubated for 15 mins followed by LEVLFQGPSK substrate addition after 45 mins by reverse-phase HPLC analysis. Details: species or system Human rhinovirus sp.
For experiment [2], the system named is Human rhinovirus sp. As to the kind of experiment: Inhibition of recombinant N-terminal His-tagged HRV 3C protease expressed in Escherichia coli at 10 uM preincubated for 15 mins followed by LEVLFQGPSK substrate addition after 45 mins by reverse-phase HPLC analysis relative to control.
Experiment [3] has as its system Human rhinovirus sp. As to the kind of experiment: Inhibition of recombinant N-terminal His-tagged HRV 3C protease expressed in Escherichia coli at 100 uM preincubated for 15 mins followed by LEVLFQGPSK substrate addition after 45 mins by reverse-phase HPLC analysis relative to control.

What is called pIC50 is −log10 of the IC50, conventionally taken in molar units. In general, inhibition refers to the drop in the measured response relative to a control, in per cent. For the molecule `CC1(C)O[C@H](C(=O)Nc2nc3ccccc3s2)[C@@H](C(=O)N2CCN(c3ccccn3)CC2)O1`, in experiment [1], the pIC50 is less than 5.00. The inhibition in experiment [2] was determined as 10.8%; in experiment [3], 82.5%.
The matching figures for `COc1cccc(NCCNC(=O)[C@@H]2OC(C)(C)O[C@H]2C(=O)Nc2ccc3ccccc3c2)c1`: less than 5.00, 44% and 80.6%.
In the case of `COc1cccc(NCCNC(=O)[C@H]2OC(C)(C)O[C@@H]2C(=O)Nc2nc3ccccc3s2)c1`, the pIC50 in experiment [1] was less than 5.00. The inhibition in experiment [2] came out at 43.6%; in experiment [3] it was 85.2%.
The matching figures for `CC1(C)O[C@@H](C(=O)Nc2nc3ccccc3s2)[C@H](C(=O)N2CCN(Cc3ccccc3)CC2)O1`: less than 5.00, 18.8% and 85.5%.
As to `Cc1cccc(CN2CCN(C(=O)[C@@H]3OC(C)(C)O[C@H]3C(=O)Nc3nc4ccccc4s3)CC2)c1`, the pIC50 in experiment [1] was less than 5.00. Besides, the inhibition was 20.2% in experiment [2] and 78.7% in experiment [3].
The matching figures for `Cc1cccc(CN2CCN(C(=O)[C@H]3OC(C)(C)O[C@@H]3C(=O)Nc3nc4ccccc4s3)CC2)c1`: less than 5.00, 34.3% and 85.3%.
On the same counts, the results for `CC1(C)O[C@@H](C(=O)Nc2nc3ccccc3s2)[C@H](C(=O)N2CCN(c3ccccn3)CC2)O1` are 4.97, 64.4% and 97.8%.
`CC1(C)O[C@H](C(=O)Nc2nc3ccccc3s2)[C@@H](C(=O)N2CCN(c3ccccc3)CC2)O1`: the pIC50 in experiment [1] was less than 5.00. For the same molecule, the inhibition stood at 17.5% in experiment [2] and 67.8% in experiment [3].
The matching figures for `CC1(C)O[C@H](C(=O)Nc2nc3ccccc3s2)[C@@H](C(=O)N2CCN(c3ccccc3C#N)CC2)O1`: less than 5.00, 48.1% and 84.2%.
Consider `CC1(C)O[C@@H](C(=O)Nc2nc3ccccc3s2)[C@H](C(=O)N2CCN(c3ccccc3)CC2)O1`, for which the pIC50 in experiment [1] was 5.07. For the same molecule, the inhibition in experiment [2] worked out at 69%; in experiment [3] it was 100%.
The matching figures for `COc1cccc(NCCNC(=O)[C@@H]2OC(C)(C)O[C@H]2C(=O)Nc2nc3ccccc3s2)c1`: 5.08, 62.2% and 99.9%.
The matching figures for `CC1(C)O[C@@H](C(=O)Nc2nc3ccccc3s2)[C@H](C(=O)N2CCN(c3ccccc3C#N)CC2)O1`: 5.60, 86% and 100%.
On the same counts, the results for `CC1(C)O[C@H](C(=O)Nc2nc3ccccc3s2)[C@@H](C(=O)N2CCN(Cc3ccccc3)CC2)O1` are less than 5.00, 20.8% and 56.4%.
